In brackets after ≈: the same amount, converted by molar mass.
How the values were obtained:
[1] = test system: A549; assay: Growth inhibitory effect of compound was measured on A-549 human lung adenocarcinoma cancer cell line; format: functional, cell-based
[2] = test system: HCT-15; assay: Growth inhibitory effect of compound was measured on HCT-15 human colon adenocarcinoma cancer cell line; format: functional, cell-based
[3] = test system: HT1197; assay: Growth inhibitory effect of compound was measured on HT1197 human bladder adenocarcinoma cancer cell line; format: functional, cell-based
[4] = target: T1, 1-phosphatidylinositol 4,5-bisphosphate phosphodiesterase gamma-1 (Homo sapiens, UniProt P19174); assay: Inhibitory concentration was evaluated against phospholipase C-gamma1
T1 sequence (P19174 whole entry): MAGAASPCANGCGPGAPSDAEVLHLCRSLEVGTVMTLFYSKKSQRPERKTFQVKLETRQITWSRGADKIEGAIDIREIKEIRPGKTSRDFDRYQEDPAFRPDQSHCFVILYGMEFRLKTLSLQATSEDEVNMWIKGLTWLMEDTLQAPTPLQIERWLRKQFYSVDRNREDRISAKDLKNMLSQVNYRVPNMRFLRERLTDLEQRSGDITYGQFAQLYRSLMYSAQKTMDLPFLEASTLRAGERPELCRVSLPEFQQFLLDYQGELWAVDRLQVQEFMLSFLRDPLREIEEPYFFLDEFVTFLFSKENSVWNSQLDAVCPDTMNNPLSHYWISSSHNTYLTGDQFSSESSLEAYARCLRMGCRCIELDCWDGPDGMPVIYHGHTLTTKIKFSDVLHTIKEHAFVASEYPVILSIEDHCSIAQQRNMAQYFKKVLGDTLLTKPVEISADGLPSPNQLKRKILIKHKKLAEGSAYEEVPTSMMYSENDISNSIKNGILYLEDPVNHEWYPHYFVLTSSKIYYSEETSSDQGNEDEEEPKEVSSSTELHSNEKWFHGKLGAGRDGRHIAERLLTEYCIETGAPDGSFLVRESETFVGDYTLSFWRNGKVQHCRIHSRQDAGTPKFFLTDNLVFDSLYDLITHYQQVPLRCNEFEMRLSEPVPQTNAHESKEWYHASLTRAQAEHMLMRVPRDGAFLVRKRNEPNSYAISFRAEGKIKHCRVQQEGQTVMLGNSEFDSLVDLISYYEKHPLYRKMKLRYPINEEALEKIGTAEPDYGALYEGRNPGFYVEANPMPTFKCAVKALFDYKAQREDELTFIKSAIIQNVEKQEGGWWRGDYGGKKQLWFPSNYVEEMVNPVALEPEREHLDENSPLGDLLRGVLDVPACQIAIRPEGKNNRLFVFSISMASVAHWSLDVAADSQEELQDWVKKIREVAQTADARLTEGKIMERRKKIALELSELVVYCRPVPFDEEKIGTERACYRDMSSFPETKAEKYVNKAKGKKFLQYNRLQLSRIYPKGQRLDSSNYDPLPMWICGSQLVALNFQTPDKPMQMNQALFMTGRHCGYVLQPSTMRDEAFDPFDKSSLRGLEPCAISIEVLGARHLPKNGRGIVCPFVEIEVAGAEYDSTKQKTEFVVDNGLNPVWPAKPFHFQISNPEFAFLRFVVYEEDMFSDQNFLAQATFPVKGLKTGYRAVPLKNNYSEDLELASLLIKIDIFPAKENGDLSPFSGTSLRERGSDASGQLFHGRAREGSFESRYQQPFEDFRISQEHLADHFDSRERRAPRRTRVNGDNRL

[5] = test system: MCF7; assay: Growth inhibitory effect of compound was measured on MCF-7 human breast adenocarcinoma cancer cell line; format: functional, cell-based

| IC50 [1] [µg/mL] | IC50 [2] [µg/mL] | IC50 [4] [µM] | IC50 [5] [µg/mL] | SMILES | IC50 [3] [µg/mL] |
| --- | --- | --- | --- | --- | --- |
| 1.79 (≈ 2.76 µM) | 1.44 (≈ 2.22 µM) | 44.6 | 2.59 (≈ 3.99 µM) | COc1cc(/C=C\C(=O)OC[C@@]23CC[C@@]4(C(=O)O)CCC(C)(C)C[C@H]4C2=CCC2[C@@]4(C)CC[C@H](O)C(C)(C)C4CC[C@]23C)ccc1O (stereo not given in full) | 2.34 (≈ 3.61 µM) |
| 0.73 (≈ 1.13 µM) | 1.41 (≈ 2.17 µM) | 35.7 | 2.03 (≈ 3.13 µM) | COc1cc(/C=C/C(=O)OC[C@@]23CC[C@@]4(C(=O)O)CCC(C)(C)C[C@H]4C2=CCC2[C@@]4(C)CC[C@H](O)C(C)(C)C4CC[C@]23C)ccc1O (stereo not given in full) | 3.53 (≈ 5.44 µM) |

From ChEMBL document CHEMBL1131717, “Uncarinic acids: phospholipase Cgamma1 inhibitors from hooks of Uncaria rhynchophylla” (Bioorg Med Chem Lett, 1999)
